Measured values published in patent US20090099158A1, “TETRAHYDROISOQUINOLINE COMPOUNDS AS MODULATORS OF THE HISTAMINE H3 RECEPTOR” (priority 2007, published 2009).

Experiments:
[1] = biological target: T1, human H3 receptor (Homo sapiens, UniProt Q9Y5N1); experiment: Cyclic AMP Accumulation (human H3 receptor); type: cell-based; details: SK-N-MC cells expressing a reporter construct and the human H3 receptor; average; read-out: Human pA2 (converted)
T1 construct: expressed in transfected cells; host or cells: SK-N-MC sublines with reporter construct
T1 sequence (Q9Y5N1 whole entry): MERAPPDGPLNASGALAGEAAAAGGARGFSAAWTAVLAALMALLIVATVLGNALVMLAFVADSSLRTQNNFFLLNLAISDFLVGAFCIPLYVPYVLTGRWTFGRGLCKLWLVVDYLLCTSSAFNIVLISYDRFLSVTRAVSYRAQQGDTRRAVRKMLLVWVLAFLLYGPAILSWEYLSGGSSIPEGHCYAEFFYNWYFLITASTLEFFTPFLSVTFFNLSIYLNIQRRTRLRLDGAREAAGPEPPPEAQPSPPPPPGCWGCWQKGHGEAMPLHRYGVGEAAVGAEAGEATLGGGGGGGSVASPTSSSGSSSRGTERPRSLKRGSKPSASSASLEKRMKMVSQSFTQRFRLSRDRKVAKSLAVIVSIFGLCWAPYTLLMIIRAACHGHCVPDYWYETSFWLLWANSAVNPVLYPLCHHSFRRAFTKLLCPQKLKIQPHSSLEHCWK
Excerpt: (§1) Sublines of SK-N-MC cells were created that expressed a reporter construct and either the human or rat H3 receptor. The pA2 values were obtained as described by Barbier et al. (2004). Data for compounds tested in these assays are presented in Table 3, as an average of the results obtained (NT=not tested).

[2] = biological target: T2, Rat H3 (Rattus norvegicus, UniProt Q9QYN8); experiment: Cyclic AMP Accumulation (rat H3 receptor); type: cell-based; set-up: expressed in transfected cells; host or cells: SK-N-MC sublines with reporter construct; details: SK-N-MC cells expressing a reporter construct and the rat H3 receptor; average; read-out: Rat pA2 (converted)
T2 sequence (Q9QYN8 whole entry): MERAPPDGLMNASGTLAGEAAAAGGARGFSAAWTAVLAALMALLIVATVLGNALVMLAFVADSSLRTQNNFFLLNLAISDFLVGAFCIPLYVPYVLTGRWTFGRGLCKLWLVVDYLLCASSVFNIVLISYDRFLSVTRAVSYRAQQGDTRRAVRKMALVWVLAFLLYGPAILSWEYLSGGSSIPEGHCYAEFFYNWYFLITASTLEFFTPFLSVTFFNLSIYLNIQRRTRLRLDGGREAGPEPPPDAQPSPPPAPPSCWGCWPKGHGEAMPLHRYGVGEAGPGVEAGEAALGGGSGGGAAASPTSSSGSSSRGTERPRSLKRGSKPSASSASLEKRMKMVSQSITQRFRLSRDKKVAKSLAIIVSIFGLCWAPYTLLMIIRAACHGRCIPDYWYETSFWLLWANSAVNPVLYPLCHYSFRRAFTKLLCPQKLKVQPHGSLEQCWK
Excerpt: as §1

[3] = biological target: T3, cloned human H3 receptors (Homo sapiens, UniProt Q9Y5N1); experiment: H3 Receptor Binding (Human); details: cloned human H3 receptors stably expressed in SK-N-MC cells; average of the results obtained
T3 construct: expressed in transfected cells; host or cells: SK-N-MC cells
T3 sequence (Q9Y5N1 whole entry): as the sequence (Q9Y5N1 whole entry) above
Procedure: Binding of compounds to the cloned human H3 receptors, stably expressed in SK-N-MC cells, was performed as described by Barbier, A. J. et al. (Br. J. Pharmacol. 2004, 143(5), 649-661). Data for compounds tested in this assay are presented in Table 1 as an average of the results obtained.

[4] = biological target: T2, Rat H3; experiment: H3 Receptor Binding (Rat); set-up: A rat brain without cerebellum (Zivic Laboratories Inc., Pittsburgh, Pa.) was homogenized; tissue Zivic Laboratories Inc; host or cells: rat brain without cerebellum (membranes); details: rat brain (without cerebellum) membranes; 0.8 nM N-[3H]-α-methylhistamine, 60 min at 25° C.; IC50 converted to Ki; average
Procedure: A rat brain without cerebellum (Zivic Laboratories Inc., Pittsburgh, Pa.) was homogenized in 50 mM Tris-HCl/5 mM EDTA and centrifuged at 1,000 rpm for 5 min. The supernatant was removed and recentrifuged at 15,000 rpm for 30 min. Pellets were rehomogenized in 50 mM Tris/5 mM EDTA (pH 7.4). Membranes were incubated with 0.8 nM N-[^3H]-α-methylhistamine plus/minus test compounds for 60 min at 25° C. and harvested by rapid filtration over GF/C glass fiber filters (pretreated with 0.3% polyethylenimine) followed by four washes with buffer. Nonspecific binding was defined in the presence of 100 μM histamine. Inhibitory concentration (responsible for 50% inhibition of maximal effect, IC50) values were determined by a single site curve-fitting program (GraphPad, San Diego, Calif.) and converted to Ki values based on a N-[^3H]-α-methylhistamine dissociation constant (Kd) of 0.8 nM. Data for compounds tested in this assay are presented in Table 2 as an average of the results obtained.

Compound | Kb [1] [nM] | Kb [2] [nM] | Ki [3] [nM] | Ki [4] [nM]
CC(C)N1CCCN(C(=O)c2ccc3c(c2)CCNC3)CC1 [Example 5, (4-Isopropyl-[1,4]diazepan-1-yl)-(1,2,3,4-tetrahydro-isoquinolin-6-yl)-methanone] | 1.55 | 15.8 | 3 | –
CC(C)N1CCCN(C(=O)c2ccc3c(c2)CCN(Cc2ccccc2)C3)CC1 [Example 11, (2-Benzyl-1,2,3,4-tetrahydro-isoquinolin-6-yl)-(4-isopropyl-[1,4]diazepan-1-yl)-methanone] | 0.661 | 4.47 | 1 | –
O=C(c1ccc2c(c1)CCN(Cc1ccsc1)C2)N1CCN(C2CCC2)CC1 [Example 15, (4-Cyclobutyl-piperazin-1-yl)-(2-thiophen-3-ylmethyl-1,2,3,4-tetrahydro-isoquinolin-6-yl)-methanone] | 1.05 | – | 4 | –
CC(C)N1CCN(C(=O)c2ccc3c(c2)CCN(Cc2ccc(Cl)cc2)C3)CC1 [Example 22, [2-(4-Chloro-benzyl)-1,2,3,4-tetrahydro-isoquinolin-6-yl]-(4-isoproplyl-piperazin-1-yl)-methanone] | 10.5 | 30.9 | 5 | –
O=C(c1ccc2c(c1)CN(Cc1ccccc1)CC2)N1CCN(C2CCC2)CC1 [Example 26, (2-Benzyl-1,2,3,4-tetrahydro-isoquinolin-7-yl)-(4-cyclobutyl-piperazin-1-yl)-methanone] | 17.8 | – | 2 | –
O=C(c1ccc2c(c1)CCN(C(=O)c1ccccc1)C2)N1CCN(C2CCC2)CC1 [Example 27, (2-Benzoyl-1,2,3,4-tetrahydro-isoquinolin-6-yl)-(4-cyclobutyl-piperazin-1-yl)-methanone] | – | – | 9 | 84
O=C(c1ccc2c(c1)CCN(C(=O)C1CCCCC1)C2)N1CCN(C2CCC2)CC1 [Example 33, [6-(4-Cyclobutyl-piperazine-1-carbonyl)-3,4-dihydro-1H-isoquinolin-2-yl]-cyclohexyl-methanone] | – | 13.8 | 8 | 123
O=C(c1ccc2c(c1)CCN(C(=O)c1ccccc1)C2)N1CCCN(C2CCC2)CC1 [Example 35, [6-(4-Cyclobutyl-[1,4]diazepane-1-carbonyl)-3,4-dihydro-1H-isoquinolin-2-yl]-phenyl-methanone] | 0.513 | 2.34 | 1 | –
O=C(c1ccc2c(c1)CN(C(=O)c1ccccc1)CC2)N1CCCN(C2CCC2)CC1 [Example 36, [7-(4-Cyclobutyl-[1,4]diazepane-1-carbonyl)-3,4-dihydro-1H-isoquinolin-2-yl]-phenyl-methanone] | 0.49 | 3.8 | 1 | –
O=C(c1ccc2c(c1)CCN(C(=O)C1CCCC1)C2)N1CCCN(C2CCC2)CC1 [Example 39, [6-(4-Cyclobutyl-[1,4]diazepane-1-carbonyl)-3,4-dihydro-1H-isoquinolin-2-yl]-cyclopentyl-methanone] | 0.38 | 3.02 | 1 | –
O=C(c1ccc2c(c1)CCN(C(=O)c1ccc(Cl)cc1)C2)N1CCCN(C2CCC2)CC1 [Example 133, (4-Chloro-phenyl)-[6-(4-cyclobutyl-[1,4]diazepane-1-carbonyl)-3,4-dihydro-1H-isoquinolin-2-yl]-methanone] | – | – | 2 | 18
O=C(c1ccc2c(c1)CCN(C(=O)c1cccc(Cl)c1)C2)N1CCCN(C2CCC2)CC1 [Example 135, (3-Chloro-phenyl)-[6-(4-cyclobutyl-[1,4]diazepane-1-carbonyl)-3,4-dihydro-1H-isoquinolin-2-yl]-methanone] | – | – | 1 | 11
O=C(c1ccc2c(c1)CCN(C(=O)c1ccccc1F)C2)N1CCCN(C2CCC2)CC1 [Example 136, [6-(4-Cyclobutyl-[1,4]diazepane-1-carbonyl)-3,4-dihydro-1H-isoquinolin-2-yl]-(2-fluoro-phenyl)-methanone] | – | – | 1 | 16

Now from value to molecule:

Kb [1] [nM] | Kb [2] [nM] | Ki [3] [nM] | Ki [4] [nM] | Compound
– | – | 1 | 8 | O=C(c1ccc2c(c1)CCN(C(=O)C1CCOC1)C2)N1CCCN(C2CCC2)CC1 (stereo not drawn) [Example 137, [6-(4-Cyclobutyl-[1,4]diazepane-1-carbonyl)-3,4-dihydro-1H-isoquinolin-2-yl]-(tetrahydro-furan-3-yl)-methanone]
– | – | 1 | 7 | CCC(=O)N1CCc2cc(C(=O)N3CCCN(C4CCC4)CC3)ccc2C1 [Example 139, 1-[6-(4-Cyclobutyl-[1,4]diazepane-1-carbonyl)-3,4-dihydro-1H-isoquinolin-2-yl]-propan-1-one]
– | – | 1 | 28 | Cc1ccc(C(=O)N2CCc3cc(C(=O)N4CCCN(C5CCC5)CC4)ccc3C2)cc1F [Example 142, [6-(4-Cyclobutyl-[1,4]diazepane-1-carbonyl)-3,4-dihydro-1H-isoquinolin-2-yl]-(3-fluoro-4-methyl-phenyl)-methanone]
– | – | 1 | 32 | O=C(c1ccc2c(c1)CCN(C(=O)c1ccc(F)cc1F)C2)N1CCCN(C2CCC2)CC1 [Example 144, [6-(4-Cyclobutyl-[1,4]diazepane-1-carbonyl)-3,4-dihydro-1H-isoquinolin-2-yl]-(2,4-difluoro-phenyl)-methanone]
– | – | 1 | 1 | CC(C)N1CCc2cc(C(=O)N3CCCN(C4CCC4)CC3)ccc2C1 [Example 177, (4-Cyclobutyl-[1,4]diazepan-1-yl)-(2-isopropyl-1,2,3,4-tetrahydro-isoquinolin-6-yl)-methanone]
– | – | 4200 | – | CCCN1CCc2cc(C(=O)N3CCC(C(C)(C)O)CC3)ccc2C1 [Example 184, [4-(1-Hydroxy-1-methyl-ethyl)-piperidin-1-yl]-(2-Propyl-1,2,3,4-tetrahydro-isoquinolin-6-yl)-methanone]
– | – | 2100 | – | O=C(c1ccc2c(c1)CCN(C1CCC1)C2)N1CCCCC1 [Example 185, (2-Cyclobutyl-1,2,3,4-tetrahydro-isoquinolin-6-yl)-piperidin-1-yl-methanone]
– | – | 1800 | – | O=C(c1ccc2c(c1)CCN(C1CCC1)C2)N1CCOCC1 [Example 186, (2-Cyclobutyl-1,2,3,4-tetrahydro-isoquinolin-6-yl)-morpholin-4-yl-methanone]
– | – | 3 | 30 | O=C(c1ccc2c(c1)CCN(C1CCC1)C2)N1CCN2CCCCC2C1 (stereo not drawn) [Example 187, (2-Cyclobutyl-1,2,3,4-tetrahydro-isoquinolin-6-yl)-(octahydro-pyrido[1,2-a]pyrazin-2-yl)-methanone]
– | – | 340 | – | CC(C)(C)C1CCN(C(=O)c2ccc3c(c2)CCN(C2CCC2)C3)CC1 [Example 188, (4-tert-Butyl-piperidin-1-yl)-(2-cyclobutyl-1,2,3,4-tetrahydro-isoquinolin-6-yl)-methanone]
– | – | 1 | – | O=C(c1ccc2c(c1)CCN(C1CCC1)C2)N1CCCN(C2CCC2)CC1 [Example 189, (4-Cyclobutyl-[1,4]diazepan-1-yl)-(2-cyclobutyl-1,2,3,4-tetrahydro-isoquinolin-6-yl)-methanone]
– | – | 2200 | – | O=C(c1ccc2c(c1)CCN(C1CCCC1)C2)N1CCCCC1 [Example 191, (2-Cyclopentyl-1,2,3,4-tetrahydro-isoquinolin-6-yl)-piperidin-1-yl-methanone]
– | – | 1 | – | O=C(c1ccc2c(c1)CCN(C1CCCC1)C2)N1CCN2CCCCC2C1 (stereo not drawn) [Example 192, (2-Cyclopentyl-1,2,3,4-tetrahydro-isoquinolin-6-yl)-(octahydro-pyrido[1,2-a]pyrazin-2-yl)-methanone]
– | – | 240 | – | CC(C)(C)C1CCN(C(=O)c2ccc3c(c2)CCN(C2CCCC2)C3)CC1 [Example 193, (4-tert-Butyl-piperidin-1-yl)-(2-cyclopentyl-1,2,3,4-tetrahydro-isoquinolin-6-yl)-methanone]
– | – | 2700 | – | CC(C)(O)C1CCN(C(=O)c2ccc3c(c2)CCN(C2CCCC2)C3)CC1 [Example 194, (2-Cyclopentyl-1,2,3,4-tetrahydro-isoquinolin-6-yl)-[4-(1-hydroxy-1-methyl-ethyl)-piperidin-1-yl]-methanone]
